Drawing on US9242984B2, “Pyrazolyl derivatives as Syk inhibitors” (Merck Sharp & Dohme Corp., priority 2012, dated 2016), this text covers IC50 for 8 compounds.

The first test has as its target T1, recombinant human Syk (GST-hSyk fusion protein) (Homo sapiens, UniProt P43405).
T1 construct: purchased Carna Biosciences 08-176
Description: Homogeneous Time-Resolved Fluorescence (HTRF) assay for the recombinant human Syk enzyme. In kind it is biochemical. Conditions: 10-dose titration, 25 μM ATP; read-out: rhSYK IC50. The method in brief: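 GST-hSyk (5 pM) preincubated 10 min with compound (0.1% DMSO) in 15 mM Tris-HCl pH 7.5, 2 mM DTT; reaction started with 250 nM biotinylated peptide, 5 mM Mg, 25 μM ATP, 45 min, room temperature. EDTA quench, Eu-anti-phosphotyrosine/SA-APC HTRF read after 30 min; IC50 from 10-dose titration (10 μM–0.508 nM), four-parameter fit.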
Consider `Cc1cc(Nc2nccc(C(F)F)n2)cc(-c2cnn(CC3(O)CCC3)c2)c1` [Example 29.1, 1-((4-(3-((4-(Difluoromethyl)pyrimidin-2-yl)amino)-5-methylphenyl)-1H-pyrazol-1-yl)methyl)cyclobutanol], for which the IC50 was 2 nM.

The test is the same for the next values; noted with them: IC50 class; 10-dose titration, 25 μM ATP; read-out: rhSYK Activity.
Take `Cc1cc(Nc2cc(C(F)F)ccn2)nc(-c2cnn(CC3(O)CCC3)c2)c1` [Example 29.2, 1-{[4-(6-{[4-(difluoromethyl)pyridin-2-yl]amino}-4-methylpyridin-2-yl)-1H-pyrazol-1-yl]methyl}cyclobutanol]: the IC50 is at most 100 nM.
Same read-out and setting: the same measure for `Cc1ccnc(Nc2cc(C)cc(-c3cnn(CC4(O)CCC4)c3)n2)c1` [Example 29.3, 1-[(4-{4-methyl-6-[(4-methylpyridin-2-yl)amino]pyridin-2-yl}-1H-pyrazol-1-yl)methyl}cyclobutanol]: at most 100 nM.
Regarding `OC1(Cn2cc(-c3cccc(Nc4nccc(C(F)F)n4)c3)cn2)CCC1` [Example 29.4, 1-{[4-(3-{[4-(difluoromethyl)pyrimidin-2-yl]amino}phenyl)-1H-pyrazol-1-yl]methyl}cyclobutanol], the IC50 is at most 100 nM.
As for `Cc1cc(Nc2nccc(C)n2)cc(-c2cnn(CC3(O)CCC3)c2)c1` [Example 29.5, 1-[(4-{3-methyl-5-[(4-methylpyrimidin-2-yl)amino]phenyl}-1H-pyrazol-1-yl)methyl}cyclobutanol], the IC50 was at most 100 nM.
As to `Cc1cc(Nc2ncc(F)c(C(F)F)n2)cc(-c2cnn(CC3(O)CCC3)c2)c1` [Example 29.6, 1-{[4-(3-{[4-(difluoromethyl)-5-fluoropyrimidin-2-yl]amino}-5-methylphenyl)-1H-pyrazol-1-yl]methyl}cyclobutanol], the IC50 was at most 100 nM.
On the same count and under the same terms, then `Cc1cc(Nc2cc(C3CC3)ccn2)nc(-c2cnn(CC3(O)CCC3)c2)c1` [Example 29.7, 1-[(4-{6-[(4-cyclopropylpyridin-2-yl)amino]-4-methylpyridin-2-yl}-1H-pyrazol-1-yl)methyl]cyclobutanol], with at most 100 nM.
On the same count and under the same terms, the same measure for “N-[2-methyl-6-(1-methyl-1H-pyrazol-4-yl)pyridin-4-yl]-4-(trifluoromethyl)-pyrimidin-2-amine [Example 1.43]”: 100 to 1000 nM.
